Test results from article PMC7024310, “Pyrenosetins A–C, New Decalinoylspirotetramic Acid Derivatives Isolated by Bioactivity-Based Molecular Networking from the Seaweed-Derived Fungus Pyrenochaetopsis sp. FVE-001” (Marine Drugs, 2020).

Key:
[1] = tested on: human malignant melanoma cell line A-375; experiment: CellTiterBlue cell viability assay, malignant melanoma cell line A-375; format: cell-based; conditions: for IC50: Homo sapiens, A-375 cells, 24 h treatment, CellTiterBlue, read-out: IC50 against A-375 cells
Protocol: (§1) The crude extracts were initially tested in vitro against 5 human cancer cell lines: colorectal adenocarcinoma cell line HT-29 (DSMZ, Braunschweig, Germany), malignant melanoma cell line A-375 (CLS, Eppelheim, Germany), colon cancer cell line HCT-116 (DSMZ), lung carcinoma cell line A-549 (CLS, Eppelheim, Germany), human breast cancer line MB-231 (CLS), and the non-cancerous human keratinocyte line HaCaT (CLS) at a concentration of 100 µg/mL. The antitumoral activity of the crude extracts was evaluated by monitoring the metabolic activity using the CellTiterBlue Cell Viability Assay (Promega, Mannheim, Germany). HT-29 and HaCaT cells were cultivated in RPMI medium, A-549 and MB-231 cells in DMEM: Ham’s F12 medium (1:1) supplemented with 15 mM HEPES and A-375 and HCT-116 cells in DMEM medium supplemented with 4.5 g/L D-Glucose and 110 mg/L sodium pyruvate. All media were supplemented with L-Glutamine, 10% fetal bovine serum, 100 U/mL penicillin, and […] streptomycin. The cultures were maintained at 37 °C under a humidified atmosphere and 5% CO2. The cell lines were transferred every 3 or 4 days. For experimental procedure, the cells were seeded in 96 well plates at a concentration of 10,000 cells per well. A stock solution of 40 mg/mL in DMSO was prepared of each extract. After 24 h incubation, the medium was removed from the cells and 100 µL fresh medium containing the test samples was added. Each sample was prepared in duplicate once. Doxorubicin as a standard therapeutic drug was used as positive control, 0.5% DMSO and growth media were used as controls. Following compound addition, plates were cultured at 37 °C for 24 h. Afterwards, the assay was performed according to the manufacturer’s instructions and measured using the microplate reader Tecan Infinite M200 at excitation 560 nm and emission of 590 nm. For determination of IC50 values, a dilution series of the extracts was prepared and tested, as described before for the crude extract.

[2] = tested on: non-cancerous human keratinocyte cell line HaCaT; experiment: CellTiterBlue cell viability assay, non-cancerous keratinocyte line HaCaT (general toxicity); format: cell-based; conditions: HaCaT cells, 24 h treatment, read-out: IC50 against HaCaT cells
Protocol: as §1

[3] = tested on: Plasmodium falciparum 3D7; design: method as in PMID 28901329; conditions: cited from earlier work
cancer cell lines = tested on: cancer cell lines; design: method as in PMID 28901329; conditions: cited from earlier work

| Compound | IC50 [1] | IC50 [2] | antimalarial activity [3] | activity against cancer cell lines (cancer cell lines) | selectivity index (IC50 value against HaCaT cells / IC50 value against A-375 cells) ([1]; HaCaT vs A-375) |
| --- | --- | --- | --- | --- | --- |
| CC1=CC2CC(C)CCC2C2(C)C(=O)C3(C(=O)C(CO)N(C)C3=O)C(C=CC(C)O)C12 (stereo not drawn) [Compound 1, Pyrenosetin A] | 2.8 µM | 4.2 µM |  |  |  |
| COc1cccc2c1C(=O)c1c(O)c3c(c(O)c1C2=O)C[C@@](O)(C(=O)CO)C[C@@H]3O[C@H]1C[C@H](N)[C@H](O)[C@H](C)O1 [Doxorubicin, reference compound] | 0.6 µM | 22.1 µM |  |  |  |
| CC(=O)/C=C/[C@H]1[C@H](C(=O)N(C)[C@H](CO)C(=O)O)C(=O)[C@@]2(C)[C@@H]1C(C)=C[C@H]1C[C@@H](C)CC[C@@H]12 [wakodecaline B] |  |  | moderate antimalarial activity | inactive |  |
| C/C=C/C=C/[C@H]1C(C)=C[C@H]2C[C@@H](C)CC[C@@H]2[C@@]1(C)/C(O)=C1/C(=O)[C@@H](CO)N(C)C1=O [Compound 4, Phomasetin] | 37.3 µM | 45 µM |  |  |  |
| CC(=O)/C=C/[C@@H]1[C@H]2C(C)=C[C@H]3C[C@@H](C)CC[C@@H]3[C@@]2(C)C(=O)[C@@]12C(=O)[C@@H](CO)N(C)C2=O [Compound 3, Pyrenosetin C] | 140 µM | 143 µM |  |  |  |
| wakodecaline A |  |  | moderate antimalarial activity | inactive |  |
| CC1=C[C@H]2C[C@@H](C)CC[C@@H]2[C@@]2(C)C(=O)[C@@]3(C(=O)[C@@H](CO)N(C)C3=O)[C@H](/C=C/[C@@H](C)O)[C@@H]12 [Compound 2, Pyrenosetin B] | 6.3 µM | 35 µM |  |  | around 5.6 |
